Test results: ChEMBL document CHEMBL1141312, “Induction of apoptosis by diterpenes from the soft coral Xenia elongata” (2007)
Active and inactive are the calls of the source. The calls are words filed in the database; no cut-off is given here.

Tests used:
W2 = assay: (§1) Induction of apoptosis in mouse W2 cells assessed as cell death after 48 hrs by MTT assay; type: functional
[1] = as §1; type: functional
[2] = Induction of apoptosis in apoptosis-resistant mouse D3 cells assessed as cell growth after 48 hrs by MTT assay; type: functional
D3 [3] = assay: Induction of apoptosis in mouse apoptosis-resistant D3 cells assessed as cell growth at 12 uM after 48 hrs by MTT assay; type: functional, cell-based
D3 [4] = assay: Induction of apoptosis in mouse apoptosis-resistant D3 cells assessed as cell growth at 12 uM after 72 hrs by MTT assay; type: functional, cell-based

Compound	Activity (W2)	Activity [1] [%]	Activity [2] [%]	Activity (D3 [3])	Activity (D3 [4])
C=C1CC/C=C(\C)CC[C@H](/C(=C/C=C/C(C)(C)O)COC(C)=O)[C@H]1C(=O)OC	Active	–	–	–	–
C=C1CC/C=C(\C)CC[C@@H]2C(C(CC3OC3(C)C)OC(C)=O)=CO[C@H](OC(C)=O)[C@@H]12 (some centres not stated)	–	50	61	Active	Active
C=C1CC/C=C(\C)CC[C@H](/C(=C\C=C\C(C)(C)O)COC(C)=O)[C@H]1C(OC)OC	Active	–	–	–	–
C=C1CC/C=C(\C)CC[C@H](/C(=C\CC=C(C)C)COC(C)=O)[C@H]1C(=O)OC	Active	–	–	–	–
